Measurements reported in patent publication US20250262336A1, “[177LU] LUTETIUM-PSMA I&T COMPOSITION AND DOSIMETRY, KIT, METHOD OF MAKING, AND METHOD OF USING THEREOF” (Curium US LLC, priority 2023, published 2025).

Test: Cycle 3 biodistribution and dosimetry (SPECT/CT, single or multiple time points)
Assay type: in vivo, human
Experimental: (§1) To evaluate potential changes in the tracer's kinetics and uptake after multiple treatment cycles, 16 of the 27 patients included in the dosimetry sub study, were imaged at both cycle 1 and cycle 3. Among these, at cycle 3, three patients were imaged at all 4 timepoints and the other 13 were imaged at one or two timepoints only (24 h, 48 h or both 24 h and 48 h) (Table 2). For these 13 patients, the TACs obtained at cycle 1 were used for each source organ and scaled to the normalized activity value(s) measured at Cycle 3. For patients imaged at two timepoints, the TACs were preferably scaled using the average scaling factor between the two timepoints.
(§2) A subgroup of 16 out of the 27 patients underwent and additional dosimetry assessment at Cycle 3. Among these, three patients had dosimetry performed based on images taken at 4 timepoints, while the remaining patients had dosimetry performed at 1 or 2 imaging timepoints only.
as §1, with “7 in Appendix 1).” for “2).”
as §2, with “only, as described in Section 4.4.1.” for “only.”

[1] = Lacrimal Glands (OLINDA sphere model), N = 16

O=C(O)CC[C@H](NC(=O)N[C@@H](CCCCNC(=O)CCCCCCC(=O)NCCCC[C@@H](NC(=O)[C@@H](Cc1ccccc1)NC(=O)[C@@H](Cc1ccc(O)c(I)c1)NC(=O)CC[C@H](C(=O)O)N1CCN(CC(=O)O)CCN(CC(=O)O)CCN(CC(=O)O)CC1)C(=O)O)C(=O)O)C(=O)O [^177Lu-PSMA-I&T, (3S,7 S,26R,29R,32R,37R)-29-benzyl-32-(4-hydroxy-3-iodobenzyl)-5,13,20,28,31,34-hexaoxo-37-(4,7,10-tris(carboxymethyl)-1,4,7,10-tetraazacyclododecan-1-yl)-4,6,12,21,27,30,33-heptaazaheptatriacontane-1,3,7,26,37-pentacarboxylic acid; lutetium-177 (III), metal not drawn]
Absorbed Dose in Cycle 3, Mean (Adrenals, N = 16): 0.02 Gy/GBq
Absorbed Dose in Cycle 3, max (Adrenals, N = 16): 0.03 Gy/GBq
Absorbed Dose in Cycle 3, min (Adrenals, N = 16): 0.01 Gy/GBq
Absorbed Dose in Cycle 3, Mean (Brain, N = 16): 0.01 Gy/GBq
Absorbed Dose in Cycle 3, max (Brain, N = 16): 0.02 Gy/GBq
Absorbed Dose in Cycle 3, min (Brain, N = 16): 0.00 Gy/GBq
Absorbed Dose in Cycle 3, Mean (Esophagus, N = 16): 0.01 Gy/GBq
Absorbed Dose in Cycle 3, max (Esophagus, N = 16): 0.02 Gy/GBq
Absorbed Dose in Cycle 3, min (Esophagus, N = 16): 0.00 Gy/GBq
Absorbed Dose in Cycle 3, Mean (Eyes, N = 16): 0.01 Gy/GBq
Absorbed Dose in Cycle 3, max (Eyes, N = 16): 0.02 Gy/GBq
Absorbed Dose in Cycle 3, min (Eyes, N = 16): 0.00 Gy/GBq
Absorbed Dose in Cycle 3, Mean (Gallbladder wall, N = 16): 0.01 Gy/GBq
Absorbed Dose in Cycle 3, max (Gallbladder wall, N = 16): 0.02 Gy/GBq
Absorbed Dose in Cycle 3, min (Gallbladder wall, N = 16): 0.00 Gy/GBq
Absorbed Dose in Cycle 3, Mean (Heart wall, N = 16): 0.01 Gy/GBq
Absorbed Dose in Cycle 3, max (Heart wall, N = 16): 0.02 Gy/GBq
Absorbed Dose in Cycle 3, min (Heart wall, N = 16): 0.00 Gy/GBq
Absorbed Dose in Cycle 3, Mean (Kidneys, N = 16): 0.49 Gy/GBq
Absorbed Dose in Cycle 3, max (Kidneys, N = 16): 0.85 Gy/GBq
Absorbed Dose in Cycle 3, min (Kidneys, N = 16): 0.19 Gy/GBq
Absorbed Dose in Cycle 3, Mean [1]: 0.29 Gy/GBq
Absorbed Dose in Cycle 3, max [1]: 0.73 Gy/GBq
Absorbed Dose in Cycle 3, min [1]: 0.10 Gy/GBq
Absorbed Dose in Cycle 3, Mean (Left colon, N = 16): 0.41 Gy/GBq
Absorbed Dose in Cycle 3, max (Left colon, N = 16): 0.94 Gy/GBq
Absorbed Dose in Cycle 3, min (Left colon, N = 16): 0.07 Gy/GBq
Absorbed Dose in Cycle 3, Mean (Liver, N = 16): 0.06 Gy/GBq
Absorbed Dose in Cycle 3, max (Liver, N = 16): 0.15 Gy/GBq
Absorbed Dose in Cycle 3, min (Liver, N = 16): 0.00 Gy/GBq
Absorbed Dose in Cycle 3, Mean (Lungs, N = 16): 0.01 Gy/GBq
Absorbed Dose in Cycle 3, max (Lungs, N = 16): 0.02 Gy/GBq
Absorbed Dose in Cycle 3, min (Lungs, N = 16): 0.00 Gy/GBq
Absorbed Dose in Cycle 3, Mean (Osteogenic cells, N = 16): 0.02 Gy/GBq
Absorbed Dose in Cycle 3, max (Osteogenic cells, N = 16): 0.09 Gy/GBq
Absorbed Dose in Cycle 3, min (Osteogenic cells, N = 16): 0.00 Gy/GBq
Absorbed Dose in Cycle 3, Mean (Pancreas, N = 16): 0.01 Gy/GBq
Absorbed Dose in Cycle 3, max (Pancreas, N = 16): 0.02 Gy/GBq
Absorbed Dose in Cycle 3, min (Pancreas, N = 16): 0.00 Gy/GBq
Absorbed Dose in Cycle 3, Mean (Prostate, N = 16): 0.01 Gy/GBq
Absorbed Dose in Cycle 3, max (Prostate, N = 16): 0.02 Gy/GBq
Absorbed Dose in Cycle 3, min (Prostate, N = 16): 0.01 Gy/GBq
Absorbed Dose in Cycle 3, Mean (Rectum, N = 16): 0.39 Gy/GBq
Absorbed Dose in Cycle 3, max (Rectum, N = 16): 0.90 Gy/GBq
Absorbed Dose in Cycle 3, min (Rectum, N = 16): 0.06 Gy/GBq
Absorbed Dose in Cycle 3, Mean (Red Marrow, N = 16): 0.03 Gy/GBq
Absorbed Dose in Cycle 3, max (Red Marrow, N = 16): 0.17 Gy/GBq
Absorbed Dose in Cycle 3, min (Red Marrow, N = 16): 0.00 Gy/GBq
Absorbed Dose in Cycle 3, Mean (Right Colon, N = 16): 0.22 Gy/GBq
Absorbed Dose in Cycle 3, max (Right Colon, N = 16): 0.51 Gy/GBq
Absorbed Dose in Cycle 3, min (Right Colon, N = 16): 0.04 Gy/GBq
Absorbed Dose in Cycle 3, Mean (Salivary Glands, N = 16): 0.20 Gy/GBq
Absorbed Dose in Cycle 3, max (Salivary Glands, N = 16): 0.69 Gy/GBq
Absorbed Dose in Cycle 3, min (Salivary Glands, N = 16): 0.04 Gy/GBq
Absorbed Dose in Cycle 3, Mean (Small intestine, N = 16): 0.04 Gy/GBq
Absorbed Dose in Cycle 3, max (Small intestine, N = 16): 0.10 Gy/GBq
Absorbed Dose in Cycle 3, min (Small intestine, N = 16): 0.01 Gy/GBq
Absorbed Dose in Cycle 3, Mean (Spleen, N = 16): 0.03 Gy/GBq
Absorbed Dose in Cycle 3, max (Spleen, N = 16): 0.12 Gy/GBq
Absorbed Dose in Cycle 3, min (Spleen, N = 16): 0.01 Gy/GBq
Absorbed Dose in Cycle 3, Mean (Stomach Wall, N = 16): 0.01 Gy/GBq
Absorbed Dose in Cycle 3, max (Stomach Wall, N = 16): 0.02 Gy/GBq
Absorbed Dose in Cycle 3, min (Stomach Wall, N = 16): 0.00 Gy/GBq
Absorbed Dose in Cycle 3, Mean (Testes, N = 16): 0.01 Gy/GBq
Absorbed Dose in Cycle 3, max (Testes, N = 16): 0.02 Gy/GBq
Absorbed Dose in Cycle 3, min (Testes, N = 16): 0.00 Gy/GBq
Absorbed Dose in Cycle 3, Mean (Thymus, N = 16): 0.01 Gy/GBq
Absorbed Dose in Cycle 3, max (Thymus, N = 16): 0.02 Gy/GBq
Absorbed Dose in Cycle 3, min (Thymus, N = 16): 0.00 Gy/GBq
Absorbed Dose in Cycle 3, Mean (Thyroid, N = 16): 0.01 Gy/GBq
Absorbed Dose in Cycle 3, max (Thyroid, N = 16): 0.02 Gy/GBq
Absorbed Dose in Cycle 3, min (Thyroid, N = 16): 0.00 Gy/GBq
Absorbed Dose in Cycle 3, Mean (Total Body, N = 16): 0.02 Gy/GBq
Absorbed Dose in Cycle 3, max (Total Body, N = 16): 0.03 Gy/GBq
Absorbed Dose in Cycle 3, min (Total Body, N = 16): 0.01 Gy/GBq
Absorbed Dose in Cycle 3, Mean (Urinary Bladder wall, N = 16): 0.45 Gy/GBq
Absorbed Dose in Cycle 3, max (Urinary Bladder wall, N = 16): 0.70 Gy/GBq
Absorbed Dose in Cycle 3, min (Urinary Bladder wall, N = 16): 0.36 Gy/GBq
organ absorbed radiation dose, kidneys (cycle 3, 16 patients imaged at cycle 1 and 3): 0.49±0.19 Gy/GBq
Absorbed Dose in Cycle 3, Mean (in vivo): 0.29 Gy/GBq
Absorbed Dose in Cycle 3, max (in vivo): 0.73 Gy/GBq
Absorbed Dose in Cycle 3, min (in vivo): 0.10 Gy/GBq
